Measurements from ChEMBL document CHEMBL4765403, “Augmentation of the antitumor effects of PARP inhibitors in triple-negative breast cancer via degradation by hydrophobic tagging modulation” (Eur J Med Chem, 2020).
The source made the active and inactive calls. The rule behind the calls is not given here.

What was measured:
[1] = molecular target: Poly [ADP-ribose] polymerase 1 (Homo sapiens) (UniProt P09874); assay: Induction of PARP1 degradation in triple-negative human MDA-MB-231 cells assessed as fold change in PARP1 protein expression at 10 uM incubated for 48 hrs by Western blot analysis relative to control; format: cell-based
Poly [ADP-ribose] polymerase 1 (Homo sapiens), sequence (P09874 whole entry): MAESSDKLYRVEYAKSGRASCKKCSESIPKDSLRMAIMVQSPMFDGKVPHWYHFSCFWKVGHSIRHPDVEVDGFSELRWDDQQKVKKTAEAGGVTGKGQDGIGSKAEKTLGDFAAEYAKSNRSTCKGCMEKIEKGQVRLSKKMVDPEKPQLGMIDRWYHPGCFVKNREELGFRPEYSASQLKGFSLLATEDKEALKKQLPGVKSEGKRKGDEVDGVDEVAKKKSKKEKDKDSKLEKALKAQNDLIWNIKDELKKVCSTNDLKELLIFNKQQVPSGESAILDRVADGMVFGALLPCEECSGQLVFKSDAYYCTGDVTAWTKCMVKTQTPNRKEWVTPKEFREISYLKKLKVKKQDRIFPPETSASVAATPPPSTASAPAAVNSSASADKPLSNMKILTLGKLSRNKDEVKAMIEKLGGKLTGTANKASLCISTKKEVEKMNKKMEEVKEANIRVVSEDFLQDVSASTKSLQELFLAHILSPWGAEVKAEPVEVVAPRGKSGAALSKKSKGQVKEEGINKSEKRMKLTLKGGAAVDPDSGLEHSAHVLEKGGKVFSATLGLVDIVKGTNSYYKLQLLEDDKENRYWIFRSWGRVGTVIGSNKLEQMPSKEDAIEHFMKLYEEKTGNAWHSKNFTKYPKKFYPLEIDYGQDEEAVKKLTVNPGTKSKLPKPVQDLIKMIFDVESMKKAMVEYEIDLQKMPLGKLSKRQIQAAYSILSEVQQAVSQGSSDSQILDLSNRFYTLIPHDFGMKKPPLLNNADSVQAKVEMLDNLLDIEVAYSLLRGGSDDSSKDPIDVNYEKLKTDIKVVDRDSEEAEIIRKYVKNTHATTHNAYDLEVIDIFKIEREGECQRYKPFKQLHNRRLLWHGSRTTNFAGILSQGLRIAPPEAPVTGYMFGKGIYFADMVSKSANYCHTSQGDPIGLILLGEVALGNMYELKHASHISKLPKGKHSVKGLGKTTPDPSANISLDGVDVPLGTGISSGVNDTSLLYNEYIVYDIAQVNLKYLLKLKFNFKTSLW

[2] = molecular target: Poly [ADP-ribose] polymerase 1 (Homo sapiens) (UniProt P09874); assay: Induction of PARP1 degradation in triple negative human MDA-MB-231 cells assessed as fold change in PARP1 protein expression at 5 uM incubated for 48 hrs by Western blot analysis relative to control; format: cell-based
[3] = molecular target: Poly [ADP-ribose] polymerase 1 (Homo sapiens) (UniProt P09874); assay: Induction of PARP1 degradation in triple-negative human MDA-MB-231 cells assessed as fold change in PARP1 protein expression at 2.5 uM incubated for 48 hrs by Western blot analysis relative to control; format: cell-based
MDA-MB-231 [4] = assay: Induction of endoplasmic reticulum stress in human MDA-MB-231 cells assessed as upregulation of CHOP protein expression at 5 uM incubated for 48 to 72 hrs by western blot analysis; format: functional, cell-based; details: time 48-72 hrs
MDA-MB-231 [5] = assay: Cytotoxicity against human MDA-MB-231 cells assessed as reduction in cell viability measured after 96 hrs by CCK8 assay; format: functional, cell-based; details: MDA-MB-231, 96 h
MDA-MB-231 [6] = assay: Induction of autophagy in human MDA-MB-231 cells assessed as upregulation of LC3B protein expression at 5 uM incubated for 48 to 72 hrs by western blot analysis; format: functional, cell-based; details: time 48-72 hrs
MDA-MB-231 [7] = assay: Induction of endoplasmic reticulum stress in human MDA-MB-231 cells assessed as upregulation of XBP-1s protein expression at 5 uM incubated for 48 to 72 hrs by western blot analysis; format: functional, cell-based; details: time 48-72 hrs
MDA-MB-231 [8] = assay: Cytotoxicity against triple-negative human MDA-MB-231 cells assessed as reduction in cell viability measured after 48 hrs by CCK8 assay; format: functional, cell-based; details: MDA-MB-231, 48 h

Q: Which results are given for O=C(CC1c2ccccc2-c2ccccc21)NCCCCCCN1CCN(C(=O)c2cc(Cc3n[nH]c(=O)c4ccccc34)ccc2F)CC1?
A: fold change (FC) [1]: 0.4; fold change (FC) [2]: 0.5; fold change (FC) [3]: 0.5

Q: With O=C(CC12CC3CC(CC(C3)C1)C2)NCCN1CCN(C(=O)c2cc(Cc3n[nH]c(=O)c4ccccc34)ccc2F)CC1 as the compound, how does the fold change (FC) [1] read?
A: 1.3

Q: What about the fold change (FC) [2] of the same compound?
A: 1.2

Q: And the fold change (FC) [3]?
A: 1.1

Q: For CC(C)Cc1ccc([C@H](C)C(=O)NCCCCN2CCN(C(=O)c3cc(Cc4n[nH]c(=O)c5ccccc45)ccc3F)CC2)cc1, which fold change (FC) [1] is on record?
A: 1.7

Q: And the fold change (FC) [2]?
A: 1.2

Q: And the fold change (FC) [3]?
A: 0.9

Q: For O=C(c1cc(Cc2n[nH]c(=O)c3ccccc23)ccc1F)N1CCN(C(=O)C2CC2)CC1 [OLAPARIB], which Activity (MDA-MB-231 [4]) is on record?
A: inactive

Q: And the IC50 (MDA-MB-231 [5])?
A: 32.4 µM

Q: What about the Activity (MDA-MB-231 [6]) of the same compound?
A: inactive

Q: And the Activity (MDA-MB-231 [7])?
A: inactive

Q: Which fold change (FC) [1] does the source give for O=C(CC12CC3CC(CC(C3)C1)C2)NCCCCN1CCN(C(=O)c2cc(Cc3n[nH]c(=O)c4ccccc34)ccc2F)CC1 here?
A: 1.1

Q: What about the fold change (FC) [2] of the same compound?
A: 1.2

Q: And the fold change (FC) [3]?
A: 1.1

Q: CC(C)Cc1ccc([C@H](C)C(=O)NCCCCCCN2CCN(C(=O)c3cc(Cc4n[nH]c(=O)c5ccccc45)ccc3F)CC2)cc1 was tested. Which fold change (FC) [1] did it give?
A: 0.3

Q: What about the IC50 (MDA-MB-231 [8]) of the same compound?
A: 15.9 µM

Q: And the fold change (FC) [2]?
A: 0.7

Q: And the fold change (FC) [3]?
A: 1.2

Q: Which fold change (FC) [1] does the source give for O=C(CC1c2ccccc2-c2ccccc21)NCCCCN1CCN(C(=O)c2cc(Cc3n[nH]c(=O)c4ccccc34)ccc2F)CC1 here?
A: 0.5

Q: And the IC50 (MDA-MB-231 [8])?
A: > 50 µM

Q: What about the fold change (FC) [2] of the same compound?
A: 0.5

Q: And the fold change (FC) [3]?
A: 0.5

Q: Which results are given for CC(C)Cc1ccc([C@H](C)C(=O)N2CCN(C(=O)c3cc(Cc4n[nH]c(=O)c5ccccc45)ccc3F)CC2)cc1?
A: fold change (FC) [1]: 0.8; fold change (FC) [2]: 1; fold change (FC) [3]: 0.8

Q: For c1ccc2c(c1)Cc1ccccc1-2 [FLUORENE], which IC50 (MDA-MB-231 [8]) is on record?
A: > 50 µM

Q: What does the source list for O=C(CC12CC3CC(CC(C3)C1)C2)NCCCCCCN1CCN(C(=O)c2cc(Cc3n[nH]c(=O)c4ccccc34)ccc2F)CC1?
A: fold change (FC) [1]: 0.8; fold change (FC) [2]: 1.2; fold change (FC) [3]: 0.9

Q: Which fold change (FC) [1] does the source give for O=C(NCCN1CCN(C(=O)c2cc(Cc3n[nH]c(=O)c4ccccc34)ccc2F)CC1)C(C1CCCCC1)C1CCCCC1 here?
A: 0.9

Q: What about the fold change (FC) [2] of the same compound?
A: 0.9

Q: What about the fold change (FC) [3] of the same compound?
A: 0.9

Q: Which results are given for O=C(NCCN1CCN(C(=O)c2cc(Cc3n[nH]c(=O)c4ccccc34)ccc2F)CC1)C(c1ccccc1)c1ccccc1?
A: fold change (FC) [1]: 1.3; fold change (FC) [2]: 1.1; fold change (FC) [3]: 1.3

Q: What does the source list for CC(C)Cc1ccc([C@H](C)C(=O)NCCN2CCN(C(=O)c3cc(Cc4n[nH]c(=O)c5ccccc45)ccc3F)CC2)cc1?
A: fold change (FC) [1]: 0.7; fold change (FC) [2]: 0.8; fold change (FC) [3]: 0.9

Q: For O=C(c1cc(Cc2n[nH]c(=O)c3ccccc23)ccc1F)N1CCN(C(=O)C(c2ccccc2)c2ccccc2)CC1, which fold change (FC) [1] is on record?
A: 1.1

Q: What about the fold change (FC) [2] of the same compound?
A: 1

Q: And the fold change (FC) [3]?
A: 1

Q: Which results are given for O=C(NCCCCCCN1CCN(C(=O)c2cc(Cc3n[nH]c(=O)c4ccccc34)ccc2F)CC1)C(C1CCCCC1)C1CCCCC1?
A: fold change (FC) [1]: 0.3; IC50 (MDA-MB-231 [8]): > 50 µM; fold change (FC) [2]: 0.8; fold change (FC) [3]: 0.9

Q: Which results are given for O=C(c1cc(Cc2n[nH]c(=O)c3ccccc23)ccc1F)N1CCN(C(=O)C(C2CCCCC2)C2CCCCC2)CC1?
A: fold change (FC) [1]: 0.7; fold change (FC) [2]: 0.7; fold change (FC) [3]: 0.6

Q: Which results are given for O=C(NCCCCN1CCN(C(=O)c2cc(Cc3n[nH]c(=O)c4ccccc34)ccc2F)CC1)C(c1ccccc1)c1ccccc1?
A: fold change (FC) [1]: 1.2; fold change (FC) [2]: 1.6; fold change (FC) [3]: 1.4

Q: What does the source list for O=C(CC12CC3CC(CC(C3)C1)C2)N1CCN(C(=O)c2cc(Cc3n[nH]c(=O)c4ccccc34)ccc2F)CC1?
A: fold change (FC) [1]: 0.8; fold change (FC) [2]: 0.7; fold change (FC) [3]: 0.9

Q: What does the source list for O=C(CC1c2ccccc2-c2ccccc21)NCCN1CCN(C(=O)c2cc(Cc3n[nH]c(=O)c4ccccc34)ccc2F)CC1?
A: fold change (FC) [1]: 0.4; IC50 (MDA-MB-231 [8]): 26.2 µM; fold change (FC) [2]: 0.3; fold change (FC) [3]: 0.4

Q: What does the source list for O=C(NCCCCN1CCN(C(=O)c2cc(Cc3n[nH]c(=O)c4ccccc34)ccc2F)CC1)C(C1CCCCC1)C1CCCCC1?
A: fold change (FC) [1]: 1.2; fold change (FC) [2]: 0.8; fold change (FC) [3]: 1.1

Q: O=C(NCCCCCCN1CCN(C(=O)c2cc(Cc3n[nH]c(=O)c4ccccc34)ccc2F)CC1)C(c1ccccc1)c1ccccc1 was tested. Which fold change (FC) [1] did it give?
A: 1.3

Q: And the fold change (FC) [2]?
A: 1.5

Q: What about the fold change (FC) [3] of the same compound?
A: 1.4
